According to patent publication US20240148821A1, “PHARMACEUTICAL USE OF CYCLIC PEPTIDE COMPOUND” (CHUGAI SEIYAKU KABUSHIKI KAISHA, priority 2021, published 2024):
Numbered stars: 1 amine (or outer) side, 2 acyl side, 3 side chain; on linkers, the order of the positions; unused ones are H or OH. Bridge positions count the residues as written; N and C are the ends. Square brackets hold non-standard residues; d marks the D form. Peptide text beside a SMILES is read from it. * marks the point of attachment. hPhe(3,5-F2-4-CF3) = N[C@@H](CCc1cc(F)c(C(F)(F)F)c(F)c1)C(=O)O; hPhe(3-Cl-4-CF3) = N[C@@H](CCc1ccc(C(F)(F)F)c(Cl)c1)C(=O)O; NMePhe(4-CF3) = CN[C@@H](Cc1ccc(C(F)(F)F)cc1)C(=O)O; X18 = O=C([C@H](CCc1ccc(C(F)(F)F)cn1)N[*:1])[*:2]; 3Oxa8azabicyclo(3.2.1)octane = C1CC2COCC1N2*; NMePhe(4-Me) = CN[C@@H](Cc1ccc(C)cc1)C(=O)O; NMedβ3hAla = C[C@H](CC(=O)[*:2])N(C)[*:1]; NMeGly(cPent) = CN[C@H](C(=O)O)C1CCCC1; NMe3Pal = CN[C@@H](Cc1cccnc1)C(=O)O; NMeGly(cBu) = CN[C@H](C(=O)O)C1CCC1; NMeCha = CN[C@@H](CC1CCCCC1)C(=O)O; Hyp = O=C(O)[C@@H]1C[C@@H](O)CN1; NMeChg = CN[C@H](C(=O)O)C1CCCCC1; NMeI = CC[C@H](C)[C@H](NC)C(=O)O; NMeE = CN[C@@H](CCC(=O)O)C(=O)O; NMeD = CN[C@@H](CC(=O)O)C(=O)O; NMeL = CN[C@@H](CC(C)C)C(=O)O; NMeNva = CCC[C@H](NC)C(=O)O; NMeV = CN[C@H](C(=O)O)C(C)C; d(β3hA) = C[C@@H](N)CC(=O)O; NMeC = CN[C@@H](CS)C(=O)O; NPhGly = O=C(O)CNc1ccccc1; NMeA = CN[C@@H](C)C(=O)O; NMeAib = CNC(C)(C)C(=O)O; Piperidide = C1CCN(*)CC1; Pyrrolidide = C1CCN(*)C1; Ac5c = NC1(C(=O)O)CCCC1; Aze = O=C(O)[C@@H]1CCN1; NEtG = CCNCC(=O)O; Sar = CNCC(=O)O

Key:
[1] = target: protein-protein interaction between Kras and SOS1 (biotin-tagged human Kras loaded with GDP, His-tagged human SOS1) (Homo sapiens (Human), UniProt P01116, G12D); assay: Protein-protein interaction inhibition between Kras and SOS1 (KrasG12D-SOS PPI) using AlphaScreen; type: biochemical; details: AlphaScreen; biotin-tagged human Kras loaded with GDP, His-tagged human SOS1; read-out: KRAS G12D-SOS PPI IC50;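 also: kras produced in E. coli, Ni-coupled donor beads and streptavidin acceptor beads, excitation 680 nm with emission detected at 520–620 nm via singlet oxygen transfer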
[2] = test system: Human pancreatic cancer cell line AsPC-1 (G12D mutation Kras); assay: AsPC-1 cell growth inhibition (AsPC-1 CGI); type: cell-based; details: read-out: AsPC-1 cell growth inhibition, 50% growth inhibitory concentration (IC50 value); 96 hours, CellTiter-Glo, values classified in ranges
Procedure: Test compounds were serially dilated with dimethyl sulfoxide, and 200 nL was then dispensed to a U-bottom 96-well plate using Labcyte Echo. […] The cell suspension was dispensed to a. plate containing a test compound at 100 μL per well and incubated at 37° C. in a 5% carbon dioxide gas incubator. 96 hours later, 80 μL of CellTiter-Glo (Promega) was added to each well and fluorescence was measured.

## CC[C@H](C)[C@@H]1NC(=O)[C@H](CC(C)C)N(C)C(=O)C[C@@H](C(=O)N2CCCCC2)N(C)C(=O)[C@H](C(C)C)N(C)C(=O)C2(CCCC2)NC(=O)[C@@H]2CCCN2C(=O)[C@H](CCc2ccc(C(F)(F)F)c(Cl)c2)NC(=O)CN(CC)C(=O)[C@H](CC2CCCCC2)N(C)C(=O)[C@@H]2CCN2C(=O)[C@H](C)N(C)C1=O [Compound 1276] ([NMeL]I[NMeA][Aze][NMeCha][NEtG][hPhe(3-Cl-4-CF3)]P[Ac5c][NMeV][NMeD]-Piperidide; lactam N-11)
[1]
  IC50: 17 nM
[2]
  IC50: > 500 nM

## CC[C@H](C)[C@@H]1NC(=O)[C@H](CC(C)C)N(C)C(=O)C[C@@H](C(=O)N2C3CCC2COC3)NC(=O)[C@H](C(C)C)N(C)C(=O)C2(CCCC2)NC(=O)[C@@H]2CCCN2C(=O)[C@H](CCc2ccc(C(F)(F)F)c(Cl)c2)NC(=O)CN(C)C(=O)[C@H](CC2CCCCC2)N(C)C(=O)[C@@H]2CCN2C(=O)[C@H](C)N(C)C1=O [Compound 1214] ([NMeL]I[NMeA][Aze][NMeCha][Sar][hPhe(3-Cl-4-CF3)]P[Ac5c][NMeV]D-{3Oxa8azabicyclo(3.2.1)octane}; lactam N-11)
[1]
  IC50: 77 nM
[2]
  IC50: > 500 nM

## CC[C@H](C)[C@@H]1NC(=O)[C@H](C)N(C)C(=O)C[C@@H](C)NC(=O)[C@H](C2CCCC2)N(C)C(=O)C2(CCCC2)NC(=O)[C@@H]2CCCN2C(=O)[C@H](CCc2ccc(C(F)(F)F)c(Cl)c2)NC(=O)CN(C)C(=O)[C@H](Cc2ccc(C)cc2)N(C)C(=O)[C@@H]2CCCN2C(=O)CN(C)C1=O [Compound 151] (cyclo([Ac5c][NMeGly(cPent)][d(β3hA)][NMeA]I[Sar]P[NMePhe(4-Me)][Sar][hPhe(3-Cl-4-CF3)]P))
[1]
  IC50: 5 nM
[2]
  IC50: > 500 nM

## CC[C@H](C)[C@@H]1NC(=O)[C@H](C)N(C)C(=O)C[C@@H](C(=O)N2CCCCC2)N(C)C(=O)[C@H](C(C)C)N(C)C(=O)C2(CCCC2)NC(=O)[C@H](Cc2cccnc2)N(C)C(=O)[C@H](CCc2ccc(C(F)(F)F)c(Cl)c2)NC(=O)CN(C)C(=O)[C@H](CC2CCCCC2)N(C)C(=O)CN(C)C(=O)CN(C)C1=O [Compound 519] ([NMeA]I[Sar][Sar][NMeCha][Sar][hPhe(3-Cl-4-CF3)][NMe3Pal][Ac5c][NMeV][NMeD]-Piperidide; lactam N-11)
[1]
  IC50: 2 nM
[2]
  IC50: > 500 nM

## CCC[C@H]1C(=O)N[C@@H]([C@@H](C)CC)C(=O)N(C)CC(=O)N(C)CC(=O)N(C)[C@@H](CC2CCCCC2)C(=O)N(C)CC(=O)N[C@@H](CCc2cc(F)c(C(F)(F)F)c(F)c2)C(=O)N2C[C@H](OCC)C[C@H]2C(=O)NC2(CCCC2)C(=O)N(C)[C@@H](C2CCCCC2)C(=O)N(C)[C@H](C(=O)N2CCCC2)CC(=O)N1C [Compound 1367] ([NMeNva]I[Sar][Sar][NMeCha][Sar][hPhe(3,5-F2-4-CF3)][Hyp](Et)[Ac5c][NMeChg][NMeD]-Pyrrolidide; lactam N-11)
[1]
  IC50: 0.65 nM
[2]
  IC50: ≤ 20 nM

## CC[C@H](C)[C@@H]1NC(=O)[C@H](CC(C)C)N(C)C(=O)C[C@@H](C)N(C)C(=O)[C@H](C2CCCC2)N(C)C(=O)C2(CCCC2)NC(=O)[C@@H]2CCCN2C(=O)[C@H](CCc2cc(F)c(C(F)(F)F)c(F)c2)NC(=O)CN(C)C(=O)[C@H](Cc2ccc(C(F)(F)F)cc2)N(C)C(=O)[C@@H]2CCN2C(=O)[C@H](C)N(C)C1=O [Compound 371] (cyclo([Ac5c][NMeGly(cPent)][NMedβ3hAla][NMeL]I[NMeA][Aze][NMePhe(4-CF3)][Sar][hPhe(3,5-F2-4-CF3)]P))
[1]
  IC50: 1.3 nM
[2]
  IC50: ≤ 20 nM

## CC[C@H](C)[C@@H]1NC(=O)[C@H](CC(C)C)N(C)C(=O)C[C@@H](C(=O)N2CCCC2)N(C)C(=O)[C@H](C2CCCC2)N(C)C(=O)C2(CCCC2)NC(=O)[C@@H]2CCCN2C(=O)[C@H](CCc2ccc(C(F)(F)F)c(Cl)c2)NC(=O)CN(C)C(=O)[C@H](Cc2ccc(C(F)(F)F)cc2)N(C)C(=O)[C@@H]2CCN2C(=O)[C@H](C)N(C)C1=O [Compound 589] ([NMeL]I[NMeA][Aze][NMePhe(4-CF3)][Sar][hPhe(3-Cl-4-CF3)]P[Ac5c][NMeGly(cPent)][NMeD]-Pyrrolidide; lactam N-11)
[1]
  IC50: 0.49 nM
[2]
  IC50: ≤ 20 nM

## CC[C@H](C)[C@@H]1NC(=O)CSC[C@@H](C(=O)N(C)C)N(C)C(=O)[C@H](C2CCCC2)N(C)C(=O)C2(CCCC2)NC(=O)[C@@H]2CCCN2C(=O)[C@H](CCc2ccc(C(F)(F)F)c(Cl)c2)NC(=O)CN(C)C(=O)[C@H](CC2CCCCC2)N(C)C(=O)CN(C)C(=O)CN(C)C1=O [Compound 2172, (3S,9S,18S,24R,27S,33S)-18-[(2S)-butan-2-yl]-3-[2-[3-chloro-4-(trifluoromethyl)phenyl]ethyl]-9-(cyclohexylmethyl)-27-cyclopentyl-N,N,7,10,13,16,25,28-octamethyl-2,5,8,11,14,17,20,26,29,32-decaoxospiro[22-thia-1,4,7,10,13,16,19,25,28,31-decazabicyclo[31.3.0]hexatriacontane-30,1′-cyclopentane]-24-carboxamide] ({CH2CO}-I[Sar][Sar][NMeCha][Sar][hPhe(3-Cl-4-CF3)]P[Ac5c][NMeGly(cPent)][NMeC]-NMe2; thioether N-10)
[1]
  IC50: 14 nM
[2]
  IC50: > 500 nM

## CC[C@H](C)[C@@H]1NC(=O)[C@H](CC(C)C)N(C)C(=O)C[C@@H](C(=O)N2CCCCC2)N(C)C(=O)[C@H](C2CCCC2)N(C)C(=O)C2(CCCC2)NC(=O)[C@@H]2CCCN2C(=O)[C@H](CCc2ccc(C(F)(F)F)cn2)NC(=O)CN(C)C(=O)[C@H](CC2CCCCC2)N(C)C(=O)[C@@H]2CCN2C(=O)[C@H](C)N(C)C1=O [Compound 2069] ([NMeL]I[NMeA][Aze][NMeCha][Sar][X18]P[Ac5c][NMeGly(cPent)][NMeD]-Piperidide; lactam N-11 (inferred); C-terminus assumed)
[1]
  IC50: 78 nM
[2]
  IC50: > 500 nM

## CC[C@H](C)[C@@H]1NC(=O)[C@H](CC(C)C)N(C)C(=O)C[C@@H](C(=O)N2CCCCC2)N(C)C(=O)[C@H](C2CCCCC2)N(C)C(=O)C2(CCCC2)NC(=O)[C@H](CCC(=O)NC)N(C)C(=O)[C@H](CCc2ccc(C(F)(F)F)c(Cl)c2)NC(=O)CN(C)C(=O)[C@H](CC2CCCCC2)N(C)C(=O)CN(C)C(=O)CN(C)C1=O [Compound 590] ([NMeL]I[Sar][Sar][NMeCha][Sar][hPhe(3-Cl-4-CF3)][NMeE](NHMe)[Ac5c][NMeChg][NMeD]-Piperidide; lactam N-11)
[1]
  IC50: 1.4 nM
[2]
  IC50: > 500 nM

## CC[C@H](C)[C@@H]1NC(=O)[C@H](C)N(C)C(=O)C[C@@H](C(=O)N2CCCCC2)N(C)C(=O)[C@H](C2CCC2)N(C)C(=O)C(C)(C)N(C)C(=O)CN(c2ccccc2)C(=O)[C@H](CCc2ccc(C(F)(F)F)c(Cl)c2)NC(=O)CN(C)C(=O)[C@H](CC2CCCCC2)N(C)C(=O)CN(C)C(=O)CN(C)C1=O [Compound 2150] ([NMeA]I[Sar][Sar][NMeCha][Sar][hPhe(3-Cl-4-CF3)][NPhGly][NMeAib][NMeGly(cBu)][NMeD]-Piperidide; lactam N-11)
[1]
  IC50: 5.7 nM
[2]
  IC50: > 500 nM

## CCO[C@@H]1C[C@H]2C(=O)NC3(CCCC3)C(=O)N(C)[C@@H]([C@@H](C)CC)C(=O)N(C)[C@H](C)CC(=O)N(C)[C@@H](CC(C)C)C(=O)N[C@@H]([C@@H](C)CC)C(=O)N(C)[C@@H](C)C(=O)N3CC[C@H]3C(=O)N(C)[C@@H](Cc3ccc(C(F)(F)F)cc3)C(=O)N(C)CC(=O)N[C@@H](CCc3ccc(C(F)(F)F)c(Cl)c3)C(=O)N2C1 [Compound 301] (cyclo([Ac5c][NMeI][NMedβ3hAla][NMeL]I[NMeA][Aze][NMePhe(4-CF3)][Sar][hPhe(3-Cl-4-CF3)][Hyp](Et)))
[1]
  IC50: 0.74 nM
[2]
  IC50: ≤ 20 nM
